From ChEMBL document CHEMBL2073975, “Inflammatory cytokines, but not bile acids, regulate expression of murine hepatic anion transporters in endotoxemia” (J Pharmacol Exp Ther, 2002)

Experiments:
Type in all cases: functional, organism-based
[1] = target: ATP-binding cassette sub-family C member 2 (Mus musculus, UniProt Q8VI47); experiment: (§1) TP_TRANSPORTER: RT-PCR in vivo, liver of CD-1 mouse
[2] = target: T1, Solute carrier organic anion transporter family member 1A4 (Mus musculus, UniProt Q9EP96); experiment: as §1
T1 sequence (Q9EP96 whole entry): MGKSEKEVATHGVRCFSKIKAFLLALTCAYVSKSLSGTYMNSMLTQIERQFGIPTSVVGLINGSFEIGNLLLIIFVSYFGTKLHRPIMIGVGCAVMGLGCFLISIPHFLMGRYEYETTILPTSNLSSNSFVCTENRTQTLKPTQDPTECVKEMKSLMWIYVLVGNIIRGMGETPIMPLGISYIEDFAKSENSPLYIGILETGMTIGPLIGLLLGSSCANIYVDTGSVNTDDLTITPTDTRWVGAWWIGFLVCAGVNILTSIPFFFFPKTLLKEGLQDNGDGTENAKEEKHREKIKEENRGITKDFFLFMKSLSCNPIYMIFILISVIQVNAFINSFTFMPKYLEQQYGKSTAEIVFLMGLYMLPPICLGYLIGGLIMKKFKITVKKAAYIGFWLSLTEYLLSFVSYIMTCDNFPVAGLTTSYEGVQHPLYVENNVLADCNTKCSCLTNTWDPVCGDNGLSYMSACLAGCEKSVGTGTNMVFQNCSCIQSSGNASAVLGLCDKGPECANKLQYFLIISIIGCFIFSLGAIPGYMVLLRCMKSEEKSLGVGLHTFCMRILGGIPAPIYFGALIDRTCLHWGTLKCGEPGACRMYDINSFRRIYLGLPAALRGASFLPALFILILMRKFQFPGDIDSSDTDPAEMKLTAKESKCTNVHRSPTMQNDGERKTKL

[3] = target: ATP-binding cassette sub-family C member 3 (Mus musculus, UniProt B2RX12); experiment: as §1
ATP-binding cassette sub-family C member 3, sequence (B2RX12 whole entry): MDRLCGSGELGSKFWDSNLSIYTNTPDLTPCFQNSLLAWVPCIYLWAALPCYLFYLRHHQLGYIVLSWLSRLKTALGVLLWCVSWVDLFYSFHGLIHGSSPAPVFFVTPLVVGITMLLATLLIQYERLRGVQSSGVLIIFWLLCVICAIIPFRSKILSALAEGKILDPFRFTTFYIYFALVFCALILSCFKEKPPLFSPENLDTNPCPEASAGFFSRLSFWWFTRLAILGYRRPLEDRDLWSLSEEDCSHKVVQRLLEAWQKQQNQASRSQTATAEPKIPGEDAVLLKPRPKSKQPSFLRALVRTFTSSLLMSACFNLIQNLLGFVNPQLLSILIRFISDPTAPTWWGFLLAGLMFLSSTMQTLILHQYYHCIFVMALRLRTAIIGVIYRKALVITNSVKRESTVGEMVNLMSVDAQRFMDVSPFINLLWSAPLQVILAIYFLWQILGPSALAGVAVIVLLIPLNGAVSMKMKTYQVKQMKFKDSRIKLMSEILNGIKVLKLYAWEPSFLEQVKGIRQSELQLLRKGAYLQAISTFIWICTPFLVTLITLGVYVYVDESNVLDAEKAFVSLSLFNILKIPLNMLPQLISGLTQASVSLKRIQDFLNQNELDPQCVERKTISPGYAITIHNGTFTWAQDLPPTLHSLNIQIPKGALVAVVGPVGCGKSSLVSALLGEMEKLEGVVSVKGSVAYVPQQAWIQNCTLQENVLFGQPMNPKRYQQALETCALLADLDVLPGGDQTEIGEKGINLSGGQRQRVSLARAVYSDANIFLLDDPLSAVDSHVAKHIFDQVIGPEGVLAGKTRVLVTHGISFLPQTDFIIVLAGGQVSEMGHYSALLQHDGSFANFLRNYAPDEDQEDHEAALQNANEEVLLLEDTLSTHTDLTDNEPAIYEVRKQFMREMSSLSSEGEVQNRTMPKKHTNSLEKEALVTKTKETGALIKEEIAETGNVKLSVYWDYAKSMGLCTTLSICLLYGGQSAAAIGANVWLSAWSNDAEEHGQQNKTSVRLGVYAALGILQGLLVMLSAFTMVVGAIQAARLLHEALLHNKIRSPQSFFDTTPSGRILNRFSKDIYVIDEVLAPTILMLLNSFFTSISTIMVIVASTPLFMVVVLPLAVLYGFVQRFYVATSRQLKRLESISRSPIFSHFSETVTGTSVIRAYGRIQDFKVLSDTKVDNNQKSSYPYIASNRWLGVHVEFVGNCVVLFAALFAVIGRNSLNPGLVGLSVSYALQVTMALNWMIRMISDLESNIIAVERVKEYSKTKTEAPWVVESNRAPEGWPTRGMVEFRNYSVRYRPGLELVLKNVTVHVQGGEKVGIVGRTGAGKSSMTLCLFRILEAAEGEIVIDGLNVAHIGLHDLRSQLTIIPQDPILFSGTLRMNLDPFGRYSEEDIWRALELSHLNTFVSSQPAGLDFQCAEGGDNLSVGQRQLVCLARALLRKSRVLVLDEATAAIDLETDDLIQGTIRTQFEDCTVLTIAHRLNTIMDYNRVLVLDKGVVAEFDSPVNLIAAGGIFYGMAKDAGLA

Bile salt export pump = target: T2, Bile salt export pump (Mus musculus, UniProt Q9QY30); experiment: as §1
T2 sequence (Q9QY30 whole entry): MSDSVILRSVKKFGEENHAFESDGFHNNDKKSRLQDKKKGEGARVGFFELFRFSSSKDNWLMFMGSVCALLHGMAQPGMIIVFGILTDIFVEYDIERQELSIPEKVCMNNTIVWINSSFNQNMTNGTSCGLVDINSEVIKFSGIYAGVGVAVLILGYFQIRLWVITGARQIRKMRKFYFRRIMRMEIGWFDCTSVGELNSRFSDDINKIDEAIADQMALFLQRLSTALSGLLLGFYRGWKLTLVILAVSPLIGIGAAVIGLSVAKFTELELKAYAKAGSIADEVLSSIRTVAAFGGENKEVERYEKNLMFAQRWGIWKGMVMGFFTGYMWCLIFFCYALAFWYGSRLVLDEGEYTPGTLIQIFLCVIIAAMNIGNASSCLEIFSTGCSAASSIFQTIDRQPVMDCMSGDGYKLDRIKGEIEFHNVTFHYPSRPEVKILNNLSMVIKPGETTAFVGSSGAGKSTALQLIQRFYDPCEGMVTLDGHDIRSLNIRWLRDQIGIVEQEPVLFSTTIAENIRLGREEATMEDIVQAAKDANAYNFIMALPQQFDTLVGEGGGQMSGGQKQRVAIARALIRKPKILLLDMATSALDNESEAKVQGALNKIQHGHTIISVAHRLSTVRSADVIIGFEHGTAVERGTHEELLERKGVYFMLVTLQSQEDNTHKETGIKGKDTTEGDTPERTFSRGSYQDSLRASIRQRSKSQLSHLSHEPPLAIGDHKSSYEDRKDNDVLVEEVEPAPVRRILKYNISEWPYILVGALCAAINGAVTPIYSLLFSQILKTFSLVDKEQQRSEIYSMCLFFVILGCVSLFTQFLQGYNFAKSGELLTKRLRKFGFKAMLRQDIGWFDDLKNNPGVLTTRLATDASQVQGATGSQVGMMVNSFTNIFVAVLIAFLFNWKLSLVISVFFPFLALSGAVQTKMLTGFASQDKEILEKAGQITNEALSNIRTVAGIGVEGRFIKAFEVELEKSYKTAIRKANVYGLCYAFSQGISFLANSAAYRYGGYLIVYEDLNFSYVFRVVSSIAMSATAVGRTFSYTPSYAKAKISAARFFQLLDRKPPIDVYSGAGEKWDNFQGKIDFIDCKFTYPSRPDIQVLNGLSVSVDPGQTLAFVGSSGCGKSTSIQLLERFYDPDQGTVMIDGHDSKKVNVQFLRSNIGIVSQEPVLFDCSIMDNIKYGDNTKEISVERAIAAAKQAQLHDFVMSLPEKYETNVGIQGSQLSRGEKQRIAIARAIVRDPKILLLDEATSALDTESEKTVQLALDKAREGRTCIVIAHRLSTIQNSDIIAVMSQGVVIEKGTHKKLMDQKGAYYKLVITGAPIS

[4] = target: Multidrug resistance-associated protein 1 (Mus musculus, UniProt O35379); experiment: as §1
Multidrug resistance-associated protein 1, sequence (O35379 whole entry): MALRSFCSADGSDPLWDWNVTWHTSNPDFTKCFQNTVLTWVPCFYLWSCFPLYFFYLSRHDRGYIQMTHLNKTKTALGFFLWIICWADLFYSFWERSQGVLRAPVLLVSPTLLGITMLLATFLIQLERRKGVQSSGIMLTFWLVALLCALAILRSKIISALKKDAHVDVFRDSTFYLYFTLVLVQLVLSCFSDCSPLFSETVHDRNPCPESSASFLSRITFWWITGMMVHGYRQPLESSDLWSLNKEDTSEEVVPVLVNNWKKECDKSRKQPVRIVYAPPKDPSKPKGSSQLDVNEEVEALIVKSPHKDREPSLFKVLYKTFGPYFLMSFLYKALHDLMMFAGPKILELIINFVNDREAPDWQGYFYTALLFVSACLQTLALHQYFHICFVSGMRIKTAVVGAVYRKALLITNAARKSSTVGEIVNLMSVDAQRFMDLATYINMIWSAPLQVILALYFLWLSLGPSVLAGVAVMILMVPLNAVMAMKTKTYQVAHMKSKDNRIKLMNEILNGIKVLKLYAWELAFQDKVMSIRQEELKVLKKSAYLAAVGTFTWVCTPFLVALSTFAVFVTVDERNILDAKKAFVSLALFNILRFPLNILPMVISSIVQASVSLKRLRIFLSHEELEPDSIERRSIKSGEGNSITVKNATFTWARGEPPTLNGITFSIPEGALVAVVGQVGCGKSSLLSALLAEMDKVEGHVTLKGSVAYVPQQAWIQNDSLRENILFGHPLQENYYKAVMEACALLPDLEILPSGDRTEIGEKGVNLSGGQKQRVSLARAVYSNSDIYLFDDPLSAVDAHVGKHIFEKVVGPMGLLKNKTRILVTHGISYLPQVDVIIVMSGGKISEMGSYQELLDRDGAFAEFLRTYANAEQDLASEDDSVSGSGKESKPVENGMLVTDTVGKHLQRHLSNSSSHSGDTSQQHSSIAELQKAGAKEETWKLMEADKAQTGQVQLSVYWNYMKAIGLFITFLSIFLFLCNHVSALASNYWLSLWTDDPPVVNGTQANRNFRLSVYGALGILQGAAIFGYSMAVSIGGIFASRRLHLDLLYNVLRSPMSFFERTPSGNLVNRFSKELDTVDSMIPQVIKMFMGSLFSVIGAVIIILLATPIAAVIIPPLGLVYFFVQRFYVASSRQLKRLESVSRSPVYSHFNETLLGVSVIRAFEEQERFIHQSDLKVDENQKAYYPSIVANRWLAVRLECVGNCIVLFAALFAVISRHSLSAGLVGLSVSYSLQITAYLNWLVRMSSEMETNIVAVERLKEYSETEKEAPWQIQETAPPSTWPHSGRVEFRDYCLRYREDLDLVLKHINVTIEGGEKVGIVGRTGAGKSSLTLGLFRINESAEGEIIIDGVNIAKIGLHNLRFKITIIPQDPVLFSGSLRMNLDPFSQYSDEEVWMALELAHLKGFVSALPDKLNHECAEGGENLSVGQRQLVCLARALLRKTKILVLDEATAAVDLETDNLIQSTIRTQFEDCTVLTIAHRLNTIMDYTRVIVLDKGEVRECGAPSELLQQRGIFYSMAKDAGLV

[5] = target: T3, Solute carrier organic anion transporter family member 1A1 (Mus musculus, UniProt Q9QXZ6); experiment: as §1
T3 sequence (Q9QXZ6 whole entry): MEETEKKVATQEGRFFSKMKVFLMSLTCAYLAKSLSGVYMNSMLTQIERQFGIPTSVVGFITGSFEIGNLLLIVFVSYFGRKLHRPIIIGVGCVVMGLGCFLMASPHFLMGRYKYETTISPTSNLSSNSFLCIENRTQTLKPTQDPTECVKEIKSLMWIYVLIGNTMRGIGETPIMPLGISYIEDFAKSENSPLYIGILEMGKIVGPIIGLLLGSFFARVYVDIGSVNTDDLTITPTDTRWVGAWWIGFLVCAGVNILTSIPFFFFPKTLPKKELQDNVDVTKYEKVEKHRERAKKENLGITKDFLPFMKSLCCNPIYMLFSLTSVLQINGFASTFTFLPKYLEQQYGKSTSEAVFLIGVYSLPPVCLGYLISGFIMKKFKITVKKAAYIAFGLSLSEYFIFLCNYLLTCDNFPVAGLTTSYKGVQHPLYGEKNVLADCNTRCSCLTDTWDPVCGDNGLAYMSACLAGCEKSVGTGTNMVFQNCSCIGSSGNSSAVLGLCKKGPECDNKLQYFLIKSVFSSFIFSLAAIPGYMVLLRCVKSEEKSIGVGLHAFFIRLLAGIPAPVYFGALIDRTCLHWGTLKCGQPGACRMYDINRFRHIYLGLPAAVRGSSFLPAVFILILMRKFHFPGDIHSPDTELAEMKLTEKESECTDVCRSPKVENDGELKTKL

ATP-binding cassette sub-family C member 2, sequence (Q8VI47 whole entry): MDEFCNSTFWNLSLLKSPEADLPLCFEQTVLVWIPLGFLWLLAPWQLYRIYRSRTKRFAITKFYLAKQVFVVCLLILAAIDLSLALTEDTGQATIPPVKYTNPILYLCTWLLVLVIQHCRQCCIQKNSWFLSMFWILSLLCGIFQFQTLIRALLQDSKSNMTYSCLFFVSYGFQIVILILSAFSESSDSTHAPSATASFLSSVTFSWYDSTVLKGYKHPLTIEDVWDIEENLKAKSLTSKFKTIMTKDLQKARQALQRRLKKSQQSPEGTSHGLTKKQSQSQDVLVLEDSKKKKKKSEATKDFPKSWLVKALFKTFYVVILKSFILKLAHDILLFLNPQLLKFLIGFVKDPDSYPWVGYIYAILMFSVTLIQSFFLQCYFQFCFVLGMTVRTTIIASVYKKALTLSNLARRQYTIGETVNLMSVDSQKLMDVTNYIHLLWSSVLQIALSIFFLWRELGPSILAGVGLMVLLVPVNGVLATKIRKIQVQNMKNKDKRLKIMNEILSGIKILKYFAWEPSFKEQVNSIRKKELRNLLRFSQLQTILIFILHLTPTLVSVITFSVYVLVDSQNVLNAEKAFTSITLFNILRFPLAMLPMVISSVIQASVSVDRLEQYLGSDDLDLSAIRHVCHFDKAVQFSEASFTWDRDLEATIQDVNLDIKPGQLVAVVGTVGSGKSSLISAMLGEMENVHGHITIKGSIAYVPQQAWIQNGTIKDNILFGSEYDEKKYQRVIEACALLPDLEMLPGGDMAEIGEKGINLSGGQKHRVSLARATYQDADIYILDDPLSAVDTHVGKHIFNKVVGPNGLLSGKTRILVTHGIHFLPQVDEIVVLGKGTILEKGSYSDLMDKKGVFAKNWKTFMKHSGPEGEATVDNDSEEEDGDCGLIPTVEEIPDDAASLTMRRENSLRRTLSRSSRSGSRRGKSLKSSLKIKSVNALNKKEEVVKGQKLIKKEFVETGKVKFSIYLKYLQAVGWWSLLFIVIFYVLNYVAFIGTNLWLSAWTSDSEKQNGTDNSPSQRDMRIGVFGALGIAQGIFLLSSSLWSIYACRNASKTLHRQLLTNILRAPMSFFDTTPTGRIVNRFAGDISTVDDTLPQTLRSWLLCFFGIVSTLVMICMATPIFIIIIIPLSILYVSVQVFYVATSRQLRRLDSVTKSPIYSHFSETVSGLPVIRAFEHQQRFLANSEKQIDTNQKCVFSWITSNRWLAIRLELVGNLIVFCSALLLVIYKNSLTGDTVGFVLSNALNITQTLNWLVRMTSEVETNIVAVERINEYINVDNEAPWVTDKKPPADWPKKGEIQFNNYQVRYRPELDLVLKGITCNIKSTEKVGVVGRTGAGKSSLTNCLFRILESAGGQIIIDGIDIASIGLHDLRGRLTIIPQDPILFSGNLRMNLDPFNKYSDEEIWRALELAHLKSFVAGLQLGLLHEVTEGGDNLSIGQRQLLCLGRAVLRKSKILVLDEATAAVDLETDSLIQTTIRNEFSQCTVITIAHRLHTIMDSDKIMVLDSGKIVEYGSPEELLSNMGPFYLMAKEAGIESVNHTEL

Compound	Activity [1]	Activity [2]	Activity [3]	Activity (Bile salt export pump)	Activity [4]	Activity [5]
CCCCCCCCCCCCCC(=O)OC(CCCCCCCCCCC)CC(=O)OC1C(NC(=O)CC(CCCCCCCCCCC)OC(=O)CCCCCCCCCCC)C(OC2CC(OC(=O)CC(O)CCCCCCCCCCC)C(NC(=O)CC(O)CCCCCCCCCCC)C(O)O2)OC(CO)C1OP(=O)(O)O (stereo not given)	inducer [Decrease]	inducer [Decrease]	inducer [Decrease]	inducer [Decrease]	is not an inducer [-]	inducer [Decrease]
C[C@H](CCC(=O)NCCS(=O)(=O)O)[C@H]1CC[C@H]2[C@@H]3CC[C@@H]4C[C@H](O)CC[C@]4(C)[C@H]3C[C@H](O)[C@]12C [TAURODEOXYCHOLIC ACID]	is not an inducer [-]	is not an inducer [-]	–	inducer [+]	is not an inducer [-]	is not an inducer [-]
INTERLEUKIN 1BETA	inducer [Decrease]	inducer [Decrease]	is not an inducer [-]	inducer [Decrease]	–	inducer [Decrease]
INTERLEUKIN 6	inducer [Decrease]	inducer [Decrease]	–	inducer [Decrease]	–	inducer [Decrease]
TURPENTINE	inducer [Decrease]	inducer [Decrease]	is not an inducer [-]	inducer [Decrease]	–	inducer [Decrease]
